# Measured values taken from publication PMC8213057, “Targeting ALK2: An Open Science Approach to Developing Therapeutics for the Treatment of Diffuse Intrinsic Pontine Glioma” (Journal of Medicinal Chemistry, 2020).
# Tests used:
# IKKb/IKBKB = molecular target: T1, IKKb/IKBKB (Homo sapiens, UniProt O14920); conditions: 1 μM; Run 1, Run 2
# T1 sequence (O14920 1-756): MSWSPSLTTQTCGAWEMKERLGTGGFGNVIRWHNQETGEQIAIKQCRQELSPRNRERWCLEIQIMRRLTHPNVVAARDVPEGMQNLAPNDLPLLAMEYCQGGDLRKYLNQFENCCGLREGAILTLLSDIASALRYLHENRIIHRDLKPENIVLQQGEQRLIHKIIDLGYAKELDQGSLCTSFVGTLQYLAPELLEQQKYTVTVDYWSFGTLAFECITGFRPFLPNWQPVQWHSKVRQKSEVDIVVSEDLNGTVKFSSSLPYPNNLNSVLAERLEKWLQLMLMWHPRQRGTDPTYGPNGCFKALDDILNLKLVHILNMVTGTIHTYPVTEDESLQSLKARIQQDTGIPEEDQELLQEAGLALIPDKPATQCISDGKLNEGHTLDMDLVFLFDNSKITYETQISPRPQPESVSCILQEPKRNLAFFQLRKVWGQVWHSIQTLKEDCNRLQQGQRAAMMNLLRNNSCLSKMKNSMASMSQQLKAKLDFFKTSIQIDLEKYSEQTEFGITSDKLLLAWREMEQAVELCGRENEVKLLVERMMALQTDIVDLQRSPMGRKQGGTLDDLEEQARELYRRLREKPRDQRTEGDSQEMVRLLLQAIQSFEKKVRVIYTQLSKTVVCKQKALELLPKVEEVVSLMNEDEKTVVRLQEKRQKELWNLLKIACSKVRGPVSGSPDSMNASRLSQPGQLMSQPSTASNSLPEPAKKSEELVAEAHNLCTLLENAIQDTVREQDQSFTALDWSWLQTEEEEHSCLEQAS
# MSK1/RPS6KA5 = MSK1/RPS6KA5 (Homo sapiens, UniProt O75582); conditions: 1 μM; Run 1, Run 2
# MUSK = molecular target: T2, MUSK (Homo sapiens, UniProt O15146); conditions: 1 μM; Run 1, Run 2
# T2 sequence (O15146 24-869): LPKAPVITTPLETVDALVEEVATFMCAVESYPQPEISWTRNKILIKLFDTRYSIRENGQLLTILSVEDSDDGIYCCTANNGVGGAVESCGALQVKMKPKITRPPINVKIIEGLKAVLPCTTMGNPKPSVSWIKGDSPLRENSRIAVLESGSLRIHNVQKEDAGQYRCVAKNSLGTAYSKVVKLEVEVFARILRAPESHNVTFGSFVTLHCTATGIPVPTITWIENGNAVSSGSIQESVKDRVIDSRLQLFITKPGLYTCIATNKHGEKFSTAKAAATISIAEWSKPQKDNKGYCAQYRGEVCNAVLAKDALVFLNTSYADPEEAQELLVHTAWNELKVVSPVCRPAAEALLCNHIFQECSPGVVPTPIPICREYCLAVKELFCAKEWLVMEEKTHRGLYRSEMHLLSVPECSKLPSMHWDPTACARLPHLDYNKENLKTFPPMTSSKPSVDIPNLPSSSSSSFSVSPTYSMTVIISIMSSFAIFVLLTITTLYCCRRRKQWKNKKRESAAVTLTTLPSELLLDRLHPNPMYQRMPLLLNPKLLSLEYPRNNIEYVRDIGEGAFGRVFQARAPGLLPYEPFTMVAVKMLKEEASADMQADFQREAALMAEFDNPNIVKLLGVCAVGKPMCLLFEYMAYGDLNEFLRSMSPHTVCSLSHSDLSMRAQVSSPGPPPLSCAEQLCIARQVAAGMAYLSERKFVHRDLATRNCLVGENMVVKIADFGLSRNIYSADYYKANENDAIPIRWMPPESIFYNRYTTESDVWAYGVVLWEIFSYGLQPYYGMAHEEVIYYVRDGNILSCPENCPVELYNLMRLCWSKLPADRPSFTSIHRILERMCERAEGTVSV
# PKCtheta = PKCtheta (Homo sapiens, UniProt Q04759); conditions: 1 μM; Run 1, Run 2
# MKK7 = molecular target: T3, MKK7 (Homo sapiens, UniProt O14733); assay: biochemical; conditions: read-out: % enzyme activity, 1 μM; Run 1, Run 2
# T3 sequence (O14733 1-419): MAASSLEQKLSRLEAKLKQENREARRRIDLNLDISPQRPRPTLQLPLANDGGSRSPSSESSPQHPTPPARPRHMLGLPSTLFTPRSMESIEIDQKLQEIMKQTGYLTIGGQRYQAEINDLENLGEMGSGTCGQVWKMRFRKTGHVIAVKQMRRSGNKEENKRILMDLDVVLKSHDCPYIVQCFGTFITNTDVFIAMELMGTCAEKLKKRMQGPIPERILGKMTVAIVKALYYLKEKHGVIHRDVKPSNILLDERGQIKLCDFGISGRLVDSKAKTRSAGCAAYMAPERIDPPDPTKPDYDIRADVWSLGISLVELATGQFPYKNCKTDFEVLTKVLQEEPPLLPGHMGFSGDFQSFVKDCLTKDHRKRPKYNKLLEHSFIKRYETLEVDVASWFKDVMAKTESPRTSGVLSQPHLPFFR
# NEK8 = molecular target: T4, NEK8 (Homo sapiens, UniProt Q86SG6); assay: biochemical; conditions: read-out: % enzyme activity, 1 μM; Run 1, Run 2
# T4 sequence (Q86SG6 1-692): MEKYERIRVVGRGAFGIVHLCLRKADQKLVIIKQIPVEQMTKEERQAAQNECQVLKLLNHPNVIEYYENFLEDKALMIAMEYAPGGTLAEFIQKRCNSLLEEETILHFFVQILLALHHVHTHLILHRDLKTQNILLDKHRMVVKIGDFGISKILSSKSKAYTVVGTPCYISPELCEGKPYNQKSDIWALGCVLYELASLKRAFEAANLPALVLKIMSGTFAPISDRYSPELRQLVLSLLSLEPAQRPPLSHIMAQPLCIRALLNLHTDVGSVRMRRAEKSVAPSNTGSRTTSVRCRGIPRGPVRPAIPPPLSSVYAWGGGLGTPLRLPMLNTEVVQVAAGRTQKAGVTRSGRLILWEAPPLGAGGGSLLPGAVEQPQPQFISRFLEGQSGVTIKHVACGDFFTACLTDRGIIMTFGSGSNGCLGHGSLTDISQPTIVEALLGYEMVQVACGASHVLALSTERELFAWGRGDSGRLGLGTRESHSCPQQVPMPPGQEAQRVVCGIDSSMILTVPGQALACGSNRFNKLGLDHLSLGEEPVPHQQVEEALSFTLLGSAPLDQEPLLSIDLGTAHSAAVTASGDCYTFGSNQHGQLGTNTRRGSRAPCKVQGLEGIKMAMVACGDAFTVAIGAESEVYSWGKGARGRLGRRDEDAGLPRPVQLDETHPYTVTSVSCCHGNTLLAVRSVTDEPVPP
# PIM3 = PIM3 (Homo sapiens, UniProt Q86V86); assay: biochemical; conditions: read-out: % enzyme activity, 1 μM; Run 1, Run 2
# Sequence of MSK1/RPS6KA5 (O75582 whole entry): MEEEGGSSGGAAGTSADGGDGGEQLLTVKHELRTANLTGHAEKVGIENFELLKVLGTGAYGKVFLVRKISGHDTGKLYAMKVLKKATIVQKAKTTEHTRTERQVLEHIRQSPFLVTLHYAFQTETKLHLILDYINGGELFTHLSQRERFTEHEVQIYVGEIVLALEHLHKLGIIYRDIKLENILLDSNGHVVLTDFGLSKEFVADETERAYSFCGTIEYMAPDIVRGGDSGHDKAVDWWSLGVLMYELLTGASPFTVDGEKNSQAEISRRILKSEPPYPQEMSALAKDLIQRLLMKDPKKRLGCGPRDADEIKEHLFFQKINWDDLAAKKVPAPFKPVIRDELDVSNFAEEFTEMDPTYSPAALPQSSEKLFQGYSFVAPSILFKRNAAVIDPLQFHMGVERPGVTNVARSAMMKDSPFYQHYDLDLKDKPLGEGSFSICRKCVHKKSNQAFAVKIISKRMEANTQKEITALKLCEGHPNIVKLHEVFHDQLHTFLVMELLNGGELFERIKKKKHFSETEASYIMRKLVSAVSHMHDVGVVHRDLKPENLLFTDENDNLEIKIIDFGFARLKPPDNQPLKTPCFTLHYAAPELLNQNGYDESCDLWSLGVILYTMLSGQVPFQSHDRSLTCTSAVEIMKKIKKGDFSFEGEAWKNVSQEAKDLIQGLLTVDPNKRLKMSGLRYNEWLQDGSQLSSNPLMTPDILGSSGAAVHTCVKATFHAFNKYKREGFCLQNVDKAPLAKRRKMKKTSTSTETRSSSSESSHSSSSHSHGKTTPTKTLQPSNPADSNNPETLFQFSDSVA
# Sequence of PKCtheta (Q04759 whole entry): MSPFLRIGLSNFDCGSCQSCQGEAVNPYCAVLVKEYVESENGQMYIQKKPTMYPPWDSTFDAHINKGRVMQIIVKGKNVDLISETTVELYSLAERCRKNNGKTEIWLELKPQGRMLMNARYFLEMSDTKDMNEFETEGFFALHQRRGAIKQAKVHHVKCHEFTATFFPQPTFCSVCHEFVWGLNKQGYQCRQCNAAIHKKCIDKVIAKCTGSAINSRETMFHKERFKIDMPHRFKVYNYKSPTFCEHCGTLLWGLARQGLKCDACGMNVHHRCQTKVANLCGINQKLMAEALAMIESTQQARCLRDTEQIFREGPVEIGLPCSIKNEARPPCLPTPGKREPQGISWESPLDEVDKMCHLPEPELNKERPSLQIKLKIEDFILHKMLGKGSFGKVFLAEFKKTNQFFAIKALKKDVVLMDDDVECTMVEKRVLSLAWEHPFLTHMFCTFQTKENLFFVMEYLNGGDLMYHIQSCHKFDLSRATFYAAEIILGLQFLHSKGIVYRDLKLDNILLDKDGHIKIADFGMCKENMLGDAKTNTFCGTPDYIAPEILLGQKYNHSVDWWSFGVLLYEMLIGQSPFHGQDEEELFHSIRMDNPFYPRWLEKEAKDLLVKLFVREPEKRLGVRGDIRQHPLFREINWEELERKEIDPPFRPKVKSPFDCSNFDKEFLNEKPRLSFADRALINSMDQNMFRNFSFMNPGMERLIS
Compound,% enzyme activity (IKKb/IKBKB) [%],% enzyme activity (MSK1/RPS6KA5) [%],% enzyme activity (MUSK) [%],% enzyme activity (PKCtheta) [%],remaining activity at 1 µM (MKK7) [%],remaining activity at 1 µM (NEK8) [%],remaining activity at 1 µM (PIM3) [%]
"COc1cc(-c2cncc(-c3ccc(N4CCN(C)CC4)cc3)c2C)cc(F)c1C(N)=O [Compound 26a, 2-Fluoro-6-methoxy-4-(4-methyl-5-(4-(4-methylpiperazin-1-yl)phenyl)pyridin-3-yl)benzamide]",101.39,82.15,91.48,81.31,93,98.4,100
"COc1cc(-c2cncc(-c3ccc(N4C[C@@H](C)N(C)[C@@H](C)C4)cc3)c2C)cc(F)c1C(N)=O [Compound 26c, 2-Fluoro-6-methoxy-4-(4-methyl-5-(4-((3R,5S)-3,4,5-trimethylpiperazin-1-yl)phenyl)pyridin-3-yl)benzamide]",100.59,89.44,90.22,84.96,98.7,109,107
